Test results taken from patent publication US20230126893A1, “[(1,4,5-TRISUBSTITUTED-1H-PYRAZOL-3-YL)SULFANYL]ACETIC ACID DERIVATIVES, SALTS THEREOF, AND USE THEREOF AS ACTIVE HERBICIDAL INGREDIENTS” (BAYER AKTIENGESELLSCHAFT, priority 2020, published 2023).

test system: Digitaria sanguinalis; test: Pre-emergence herbicidal effect against DIGSA; assay type: in vivo; conditions: 1280 g/ha, visual score after 3 weeks, 100% = plants have died, 0% = like control plants
How it was run: (§1)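 Percent herbicidal activity (100% = dead, 0% = as control) was rated by eye 3 weeks post-application in greenhouse pots of sandy loam, with treatment sprayed onto the covering soil before emergence.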

Structure (SMILES) | Pre-emergence action against DIGSA [%]
CCOC(=O)C[S+]([O-])c1nn(-c2ccccc2F)c(-c2cncc(F)c2)c1Br (centres unmarked) [II-011] | 100

test system: Tripleurospermum inodorum; test: Pre-emergence herbicidal effect against MATIN; assay type: in vivo; conditions: 1280 g/ha, visual score after 3 weeks, 100% = plants have died, 0% = like control plants
How it was run: as §1

Structure (SMILES) | Pre-emergence action against MATIN [%]
CCOC(=O)C[S+]([O-])c1nn(-c2ccccc2F)c(-c2cncc(F)c2)c1Br (centres unmarked) [II-011] | 100

test system: Bassia scoparia; test: Pre-emergence herbicidal effect against KCHSC; assay type: in vivo; conditions: 1280 g/ha, visual score after 3 weeks, 100% = plants have died, 0% = like control plants
Text: (§2) 1. Pre-emergence herbicidal effect and crop plant compatibility Seeds of monocotyledonous and dicotyledonous weed plants and crop plants are laid out in sandy loam soil in wood-fibre pots and covered with soil. The compounds of the invention, formulated in the form of wettable powders (WP) or as emulsion concentrates (EC), are then applied to the surface of the covering soil as aqueous suspension or emulsion at a water application rate equating to 600 to 800 L/ha with addition of 0.2% wetting agent. After the treatment, the pots are placed in a greenhouse and kept under good growth conditions for the trial plants. The damage to the test plants is scored visually after a test period of 3 weeks by comparison with untreated controls (herbicidal activity in percent (%): 100% activity=the plants have died, 0% activity=like control plants). [table]

Structure (SMILES) | Pre-emergence action against KCHSC [%]
CCOC(=O)C[S+]([O-])c1nn(-c2ccccc2F)c(-c2cncc(F)c2)c1Br (centres unmarked) [II-011] | 100

test system: Tripleurospermum inodorum; test: Post-emergence herbicidal effect against MATIN; assay type: in vivo; conditions: 1280 g/ha, visual assessment about 3 weeks after treatment, 100% = plants have died, 0% = like control plants
How it was run: (§3)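 Percent herbicidal effect, judged visually against untreated plants about 3 weeks after treatment, where 100% means dead plants. Treatment was a foliar spray of WP or EC formulations (600 to 800 l/ha water, 0.2% wetting agent) on one-leaf-stage plants raised in sandy loam.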

Structure (SMILES) | Post-emergence action against MATIN [%]
CCOC(=O)C[S+]([O-])c1nn(-c2ccccc2F)c(-c2cncc(F)c2)c1Br (centres unmarked) [II-011] | 90

test system: Amaranthus retroflexus; test: Post-emergence herbicidal effect against AMARE; assay type: in vivo; conditions: 1280 g/ha, visual assessment about 3 weeks after treatment, 100% = plants have died, 0% = like control plants
Description: [table] 2. Post-emergence herbicidal effect and crop plant compatibility Seeds of monocotyledonous and dicotyledonous weed and crop plants are laid out in sandy loam soil in wood-fibre pots, covered with soil and cultivated in a greenhouse under good growth conditions. 2 to 3 weeks after sowing, the test plants are treated at the one-leaf stage. The compounds of the invention, formulated in the form of wettable powders (WP) or as emulsion concentrates (EC), are then sprayed onto the green parts of the plants as aqueous suspension or emulsion at a water application rate equating to 600 to 800 l/ha with addition of 0.2% wetting agent. After the test plants have been left to stand in the greenhouse under optimal growth conditions for about 3 weeks, the action of the preparations is assessed visually in comparison to untreated controls (herbicidal action in percent (%): 100% activity=the plants have died, 0% activity=like control plants).

Structure (SMILES) | Post-emergence action against AMARE [%]
CCOC(=O)C[S+]([O-])c1nn(-c2ccccc2F)c(-c2cncc(F)c2)c1Br (centres unmarked) [II-011] | 90

test system: Veronica persica; test: Post-emergence herbicidal effect against VERPE; assay type: in vivo; conditions: 1280 g/ha, visual assessment about 3 weeks after treatment, 100% = plants have died, 0% = like control plants
How it was run: as §3

Structure (SMILES) | Post-emergence action against VERPE [%]
CCOC(=O)C[S+]([O-])c1nn(-c2ccccc2F)c(-c2cncc(F)c2)c1Br (centres unmarked) [II-011] | 90

test system: Alopecurus myosuroides; test: Pre-emergence herbicidal effect against ALOMY; assay type: in vivo; conditions: 1280 g/ha, visual score after 3 weeks, 100% = plants have died, 0% = like control plants
How it was run: as §1

Structure (SMILES) | Pre-emergence action against ALOMY [%]
CCOC(=O)C[S+]([O-])c1nn(-c2ccccc2F)c(-c2cncc(F)c2)c1Br (centres unmarked) [II-011] | 100

test system: Echinochloa crus-galli; test: Pre-emergence herbicidal effect against ECHCG; assay type: in vivo; conditions: 1280 g/ha, visual score after 3 weeks, 100% = plants have died, 0% = like control plants
How it was run: as §1

Structure (SMILES) | Pre-emergence action against ECHCG [%]
CCOC(=O)C[S+]([O-])c1nn(-c2ccccc2F)c(-c2cncc(F)c2)c1Br (centres unmarked) [II-011] | 100

test system: Abutylon threophrasti; test: Post-emergence herbicidal effect against ABUTH; assay type: in vivo; conditions: 1280 g/ha, visual assessment about 3 weeks after treatment, 100% = plants have died, 0% = like control plants
How it was run: as §3

Structure (SMILES) | Post-emergence action against ABUTH [%]
CCOC(=O)C[S+]([O-])c1nn(-c2ccccc2F)c(-c2cncc(F)c2)c1Br (centres unmarked) [II-011] | 90

test system: Echinochloa crus-galli; test: Post-emergence herbicidal effect against ECHCG; assay type: in vivo; conditions: 1280 g/ha, visual score after about 3 weeks, 100% = plants have died, 0% = like control plants
How it was run: as §3

Structure (SMILES) | Post-emergence action against ECHCG [%]
CCOC(=O)C[S+]([O-])c1nn(-c2ccccc2F)c(-c2cncc(F)c2)c1Br (centres unmarked) [II-011] | 100

test system: Setaria viridis; test: Pre-emergence herbicidal effect against SETVI; assay type: in vivo; conditions: 1280 g/ha, visual score after 3 weeks, 100% = plants have died, 0% = like control plants
How it was run: as §1

Structure (SMILES) | Pre-emergence action against SETVI [%]
CCOC(=O)C[S+]([O-])c1nn(-c2ccccc2F)c(-c2cncc(F)c2)c1Br (centres unmarked) [II-011] | 100

test system: Veronica persica; test: Pre-emergence herbicidal effect against VERPE; assay type: in vivo; conditions: 1280 g/ha, visual score after 3 weeks, 100% = plants have died, 0% = like control plants
How it was run: as §1

Structure (SMILES) | Pre-emergence action against VERPE [%]
CCOC(=O)C[S+]([O-])c1nn(-c2ccccc2F)c(-c2cncc(F)c2)c1Br (centres unmarked) [II-011] | 100

test system: Lolium rigidum; test: Pre-emergence herbicidal effect against LOLRI; assay type: in vivo; conditions: 1280 g/ha, visual score after 3 weeks, 100% = plants have died, 0% = like control plants
How it was run: as §1

Structure (SMILES) | Pre-emergence action against LOLRI [%]
CCOC(=O)C[S+]([O-])c1nn(-c2ccccc2F)c(-c2cncc(F)c2)c1Br (centres unmarked) [II-011] | 100

test system: Abutylon threophrasti; test: Pre-emergence herbicidal effect against ABUTH; assay type: in vivo; conditions: 1280 g/ha, visual score after 3 weeks, 100% = plants have died, 0% = like control plants
Text: as §2

Structure (SMILES) | Pre-emergence action against ABUTH [%]
CCOC(=O)C[S+]([O-])c1nn(-c2ccccc2F)c(-c2cncc(F)c2)c1Br (centres unmarked) [II-011] | 90

test system: Poa annua; test: Post-emergence herbicidal effect against POAAN; assay type: in vivo; conditions: 1280 g/ha, visual assessment about 3 weeks after treatment, 100% = plants have died, 0% = like control plants
How it was run: as §3

Structure (SMILES) | Post-emergence action against POAAN [%]
CCOC(=O)C[S+]([O-])c1nn(-c2ccccc2F)c(-c2cncc(F)c2)c1Br (centres unmarked) [II-011] | 100

test system: Bassia scoparia; test: Post-emergence herbicidal effect against KCHSC; assay type: in vivo; conditions: 1280 g/ha, visual assessment about 3 weeks after treatment, 100% = plants have died, 0% = like control plants
How it was run: as §3

Structure (SMILES) | Post-emergence action against KCHSC [%]
CCOC(=O)C[S+]([O-])c1nn(-c2ccccc2F)c(-c2cncc(F)c2)c1Br (centres unmarked) [II-011] | 100

test system: Stellaria media; test: Pre-emergence herbicidal effect against STEME; assay type: in vivo; conditions: 1280 g/ha, visual score after 3 weeks, 100% = plants have died, 0% = like control plants
How it was run: as §1

Structure (SMILES) | Pre-emergence action against STEME [%]
CCOC(=O)C[S+]([O-])c1nn(-c2ccccc2F)c(-c2cncc(F)c2)c1Br (centres unmarked) [II-011] | 100

test system: Amaranthus retroflexus; test: Pre-emergence herbicidal effect against AMARE; assay type: in vivo; conditions: 1280 g/ha, visual score after 3 weeks, 100% = plants have died, 0% = like control plants
How it was run: as §1

Structure (SMILES) | Pre-emergence action against AMARE [%]
CCOC(=O)C[S+]([O-])c1nn(-c2ccccc2F)c(-c2cncc(F)c2)c1Br (centres unmarked) [II-011] | 100

test system: Alopecurus myosuroides; test: Post-emergence herbicidal effect against ALOMY; assay type: in vivo; conditions: 1280 g/ha, visual score after about 3 weeks, 100% = plants have died, 0% = like control plants
How it was run: as §3

Structure (SMILES) | Post-emergence action against ALOMY [%]
CCOC(=O)C[S+]([O-])c1nn(-c2ccccc2F)c(-c2cncc(F)c2)c1Br (centres unmarked) [II-011] | 100

test system: Stellaria media; test: Post-emergence herbicidal effect against STEME; assay type: in vivo; conditions: 1280 g/ha, visual assessment about 3 weeks after treatment, 100% = plants have died, 0% = like control plants
How it was run: as §3

Structure (SMILES) | Post-emergence action against STEME [%]
CCOC(=O)C[S+]([O-])c1nn(-c2ccccc2F)c(-c2cncc(F)c2)c1Br (centres unmarked) [II-011] | 100

test system: Setaria viridis; test: Post-emergence herbicidal effect against SETVI; assay type: in vivo; conditions: 1280 g/ha, visual assessment about 3 weeks after treatment, 100% = plants have died, 0% = like control plants
How it was run: as §3

Structure (SMILES) | Post-emergence action against SETVI [%]
CCOC(=O)C[S+]([O-])c1nn(-c2ccccc2F)c(-c2cncc(F)c2)c1Br (centres unmarked) [II-011] | 100

test system: Poa annua; test: Pre-emergence herbicidal effect against POAAN; assay type: in vivo; conditions: 1280 g/ha, visual score after 3 weeks, 100% = plants have died, 0% = like control plants
How it was run: as §1

Structure (SMILES) | Pre-emergence action against POAAN [%]
CCOC(=O)C[S+]([O-])c1nn(-c2ccccc2F)c(-c2cncc(F)c2)c1Br (centres unmarked) [II-011] | 100

test system: Digitaria sanguinalis; test: Post-emergence herbicidal effect against DIGSA; assay type: in vivo; conditions: 1280 g/ha, visual score after about 3 weeks, 100% = plants have died, 0% = like control plants
How it was run: as §3

Structure (SMILES) | Post-emergence action against DIGSA [%]
CCOC(=O)C[S+]([O-])c1nn(-c2ccccc2F)c(-c2cncc(F)c2)c1Br (centres unmarked) [II-011] | 100
